In US20020132832A1, “Treatment of erectile dysfunction” (priority 2001, published 2002):

Experiments:
corpus cavernosum [1] = test: Ganglionic (major pelvic ganglion) stimulated increase in CCP/MAP in anesthetized rat; assay type: in vivo; settings: for CCP/MAP at 5 V (mean ± s.e.m.): n=4; for effect on baseline CCP or MAP: no stimulation
Protocol: (§1) Using an in vivo rat model, the effect of Rho-kinase inhibition on corpus cavernosum (CCP) and mean arterial pressure (MAP) was examined. The left carotid artery and right corpus cavernosum of the rat penis were cannulated for continuous monitoring of MAP and CCP respectively as described by Mills, T., et al., (Biol. Reprod. 59, 1413-1418, 1998; J. Appl. Physiol., 91: 1269-1273, 2001). Rats were anesthetized with intramuscular ketamine (87 mg/kg body wt) plus xylazine (13 mg/kg) and maintained on supplemental ketamine as needed. Vasoactive drugs were administered through a cannula in the left corpus cavernosum. For experiments measuring voltage-stimulated changes in CCP and MAP, stainless steel bipolar electrodes were positioned on the right major pelvic ganglion. […] All pressure data were collected for analysis using Polyview data-acquisition software.
After initial measurements of CCP and MAP during ganglionic stimulation, rats were treated with L-NNA, L-NAME (200 μg/kg body weight), or saline control, and after 5 min ganglionic stimulation and CCP/MAP measurements were repeated. […] After 5 min, a 5-V stimulation was repeated, and CCP and MAP measurements were recorded.
Rho-kinase inhibition can also overcome muscle contraction due to inhibition of cyclic GMP formation. […] After 5 min, a 5-V stimulation was repeated, and CCP and MAP measurements were recorded.

[2] = system: isolated rat cavernosal tissue; test: Isolated rat cavernosal strips, relaxation of agonist-induced contraction; assay type: cell-based; settings: for effect on relaxation response of cavernosal strips to 1 μM Y-27632: 10 μM incubation
Protocol: Cavernosal strips (3-4 mm long) were prepared by removal of the corpus spongiosum and dorsal vein, and the proximal portion of the corpus cavernosum divided across the midline of the intact penis. Right and left longitudinal strips were mounted in an isolated muscle bath for measurement of contractile force generation. Strips were bathed in physiologic salt solution (130 mM NaCl, 4.7 mM KCl, 1.18 mM KHPO4, 1.17 mM […], 1.6 mM CaCl2-2H2O, 14.9 mM NaHCO3, 5.5 mM dextrose, and 0.03 mM CaNa2 EDTA), at 37° C., and gassed with 95% O2/5% CO2.

corpus cavernosum [3] = test: Erectile response to electrical stimulation of the autonomic ganglion after phosphatase inhibitor injected into corpus cavernosum; assay type: in vivo; settings: data not shown
Text: In an embodiment, the target of Rho-kinase is MLC phosphatase (FIG. 2). […] With MLC phosphatase activity inhibited, the resulting high levels of phosphorylated myosin light chain keep the sexual organs in a nonerect state.

cavernous sinuses = test: Erectile response to 5V ganglionic stimulation after vasoconstrictor injected into cavernous sinuses; assay type: in vivo; settings: for effect on erectile response to 5V ganglionic stimulation: METHOX 10 μg/kg or ET-1 50 pmol into cavernous sinuses
Protocol: Thus, FIGS. 8 and 9 show results where after an initial (5V) ganglionic stimulation (Cont), either the α-adrenergic agonist, Methoxamine (METHOX) (10 μg/kg) or endothelin-1 (ET-1) (50 pmol) was injected into the cavernous sinuses.

erectile tissue = test: Erectile response ICP/MAP to NO donor and Rho-kinase inhibitor injected into erectile tissue; assay type: in vivo; settings: small/low dose injected directly into erectile tissue
corpus cavernosum [4] = test: Intracavernosal injection in anesthetized rat, CCP/MAP without ganglionic stimulation; assay type: in vivo; parameters: time to plateau of CCP/MAP increase: unit not given here
Protocol: as §1

[5] = male, rat, in vivo
Protocol: as §1

rat aorta = test: Rat aortic rings, endothelium intact or denuded, PE-induced contraction; assay type: cell-based
Text: In these experiments, aorta (3 mm rings) were cleaned of adherent connective tissue and hung on stainless steel hooks attached between a force transducer and stationary mount for the measurement of isometric force generation. Endothelium was removed from some vessels by gentle rubbing of the lumen with a steel wire. Aortic rings were then placed in an isolated chamber, bathed in physiologic salt solution (mmol/L: 130 NaCl, 4.7 KCl, 1.18 KHPO4, 1.17 MgSO4, 1.6 CaCl2-2H2O, 14.9 NaHCO3, 5.5 dextrose, and 0.03 CaNa2EDTA; 37° C.) and gassed with 95% O2/5%CO2 Rings were set at 3 g passive tension and treated with indomethacin (1 μmol/L) to inhibit prostaglandin synthesis. Following a one hour equilibration period, vessels were contracted with phenylephrine (PE) (0.1 μmol/L) and subsequently treated with acetylcholine (1 μmol/L) to test for the presence of endothelium.

[6] = system: DOCA-salt hypertensive rats; test: Ganglionic-mediated ICP/MAP in DOCA-salt hypertensive rats; assay type: in vivo, rat; settings: 50 nmol/kg into left corpus cavernosum, 1-5 V
Text: (§2) In these experiments, male Sprague-Dawley rats (200-250 g; Harlan) were made DOCA-salt hypertensive by uninephrectomy and implantation of a deoxycorticosterone-acetate (DOCA) silastic pellet at the back of the neck. DOCA rats received saltwater (1% NaCl, 0.2% KCl) for 4 weeks. Sham control rats were uninephrectomized and drank tap water. Male stroke prone-spontaneously hypertensive rats (12 weeks old, 350 g) were obtained from the breeding colony at the Medical College of Georgia, Augusta, Ga. Systolic blood pressures were taken by tail cuff measurement (DOCA/sham: after 4 weeks treatment; SHRSP: at 12 weeks of age). Measurement of ICP/MAP was as described above. […] Subsequently, the ICP/MAP response to ganglionic stimulation was assessed over a range of voltages.

SHRSP rats = test: Ganglionic-mediated ICP/MAP in stroke prone spontaneously hypertensive rats (SHRSP); assay type: in vivo, rat; settings: 50 nmol/kg into left corpus cavernosum, 1-5 V
Text: as §2

castrated rats = test: Erectile response to graded ganglionic stimulation in castrated rats; assay type: in vivo, rat; settings: intracavernosal injection, 1-5 V
Text: Rats which have been rendered severely hypogonadal by surgical castration show a diminished erectile response.

cultured cells = settings: cited from earlier work
[7] = system: animal model of hypertension; settings: cited from earlier work
[8] = 200 μg/kg into cavernosal sinuses

## O=c1onc2cnc3ccccc3n12 [ODQ, 1H-[1,2,4]oxadiozolo-[4,3-a]quinoxalin-1]
Corpus cavernosum [1]; ODQ 300-500 μg/kg intracavernosal, Y-27632 50-200 nmol/kg in continued presence of ODQ
  CCP/MAP at 5 V (mean ± s.e.m.): 0.50±0.07

## COC(=O)[C@@H](N)CCCNC(=N)N[N+](=O)[O-] [L-NAME, N^ω-nitro-L-arginine methyl ester]
Corpus cavernosum [1]; 200 μg/kg into cavernosal sinuses, 5 V
  effect on increase in CCP/MAP induced by 5 V stimulation: significantly attenuated
Corpus cavernosum [1]; [8]
  effect on baseline CCP or MAP: did not alter CCP or MAP from baseline
[2]
  effect on relaxation response of cavernosal strips to 1 μM Y-27632: did not significantly alter
[2]; 10 μM, 15 min
  effect on PE-induced contraction: no effect

## [Na+].[Na+].[Na+].[O]=[V]([O-])([O-])[O-] [SOV, sodium orthovanadate]
Corpus cavernosum [3]; 0.1 and 1 μmol/L SOV
  inhibition of erectile response: significant inhibition
Corpus cavernosum [3]; injected into corpus cavernosum immediately before stimulation
  effect on erectile response: inhibits the erectile response in a dose dependent manner

## CN(C)c1ccc2nc3ccc(=[N+](C)C)cc-3sc2c1 [MB, methylene blue]
Corpus cavernosum [1]; MB 300-500 μg/kg intracavernosal, Y-27632 50-200 nmol/kg in continued presence of MB
  CCP/MAP at 5 V (mean ± s.e.m.): 0.49±0.04
[2]
  effect on relaxation response of cavernosal strips to 1 μM Y-27632: did not significantly alter

## N=C(NCCC[C@H](N)C(=O)O)N[N+](=O)[O-] [L-NNA, N^ω-nitro-L-arginine]
Corpus cavernosum [1]; [8]
  effect on baseline CCP or MAP: did not alter CCP or MAP from baseline

## endothelin-1 (CSCSSLMDKECVYFCHLDIIW; Endothelin-1; UniProt P05305 53-73, looked up) [ET-1, vasoconstrictor]
Cavernous sinuses
  effect on erectile response to 5V ganglionic stimulation: lowered the erectile response

## (+/−)-(E)-methyl-2-((E)-hydroxyimino)-5-nitro-6-methoxy-3-hexenamide [NOR-1]
Erectile tissue
  erectile response (increase in ICP/MAP): intermediate erectile response

## CC(N)[C@H]1CC[C@H](C(=O)Nc2ccncc2)CC1 (single isomer, unassigned; (+)) [Y-27632, monohydrate]
Corpus cavernosum [4]; 2.0-400 nmol/kg body weight in 2 μl saline into left corpus cavernosum sinuses, no stimulation
  increase in CCP/MAP: significant dose-dependent increase
Corpus cavernosum [4]; 2.0-400 nmol/kg intracavernosal
  time to plateau of CCP/MAP increase: about four
Corpus cavernosum [4]; range of 2.0-200 nmol/kg, independent of significant changes in MAP
  maximum increase in CCP/MAP over control: 74%
Corpus cavernosum [1]; 50 nmol/kg after L-NAME, 5 V
  effect on attenuation of ganglionic-induced CCP/MAP increase by NOS inhibition: overcome
Corpus cavernosum [1]; 200 nmol/kg into cavernous sinuses, 0-5 V
  effect on CCP/MAP response to ganglionic stimulation: potentiated the CCP/MAP response to ganglionic stimulation at each voltage
Corpus cavernosum [1]; 200 nmol/kg, lowest stimulation voltages
  ganglionic-stimulated rise in CCP/MAP at lowest voltages: near maximal levels
Corpus cavernosum [1]; 2.0-200 nmol/kg, 5 V
  increase in ganglionic-stimulated CCP/MAP at 5 V: 21-38%
[5]
  dose at which MAP was significantly decreased: ≥ 400 nmol/kg
[2]; Rattus norvegicus, read-out: IC50, relaxation of PE-induced tone
  IC50: 1000 nM
Rat aorta; 1 μmol/L prior to PE contraction, endothelium-denuded vessels
  vasodilator sensitivity to SNP: increased vasodialator sensitivity to SNP
Rat aorta; 1 μmol/L, endothelium denuded vessels
  inhibition of force generation to 10 μmol/L PE: completely ineffective
Rat aorta; 1 μmol/L, endothelium intact rings
  inhibition of force generation to 10 μmol/L PE: significant inhibition of force generation
Rat aorta; 1 μmol/L, endothelium intact, in presence of L-NNA (100 μmol/L) or ODQ (10 μmol/L)
  inhibition of contractile response to 10 μmol/L PE: significantly less effective
Rat aorta; 10 μmol/L or 100 μmol/L, endothelium denuded rings
  inhibition of contractile response to 10 μmol/L PE: concentration dependent inhibition
Erectile tissue
  erectile response (increase in ICP/MAP): cause an erectile response
Cavernous sinuses; 50 nmol before ET-1 50 pmol, 5V
  effect on vasoconstrictor action of ET-1: vasoconstrictor effect was prevented
Cavernous sinuses; 50 nmol before METHOX 10 μg/kg, 5V
  effect on vasoconstrictor action of METHOX: vasoconstrictor effect was prevented
[6]
  erectile response (ICP/MAP): elevating the erectile response to near normal levels
SHRSP rats
  erectile response (ICP/MAP): significantly increasing the erectile response
Castrated rats
  erectile response: restored to levels similar to those in age-matched intact animals
Cultured cells
  smooth muscle relaxation: cause smooth muscle relaxation
[7]
  smooth muscle relaxation: cause smooth muscle relaxation

## COc1ccc(OC)c(C(O)C(C)N)c1 (centres unmarked) [METHOX, Methoxamine]
Cavernous sinuses
  effect on erectile response to 5V ganglionic stimulation: lowered the erectile response
